Values after ≈ are worked out from the molar mass of the structure shown. Active and inactive are the calls of the source. No cut-off for these calls is given here.
Columns and labels:
[1] = Volume of distribution at steady state in CD-1 mouse at 1 mg/kg, po or 1 mg/kg, iv measured upto 24 hrs by LC-MS/MS analysis; assay type: ADME, organism-based; settings: in vivo
[2] = Oral bioavailability in Beagle dog at 1 mg/kg measured upto 24 hrs by LC-MS/MS analysis; assay type: ADME, organism-based, Canis lupus familiaris; settings: in vivo
[3] = Half life in CD-1 mouse at 1 mg/kg, iv measured upto 24 hrs by LC-MS/MS analysis; assay type: ADME, organism-based; settings: in vivo
[4] = Renal toxicity in cynomolgus monkey assessed as increase in kidney weight at 100 to 300 mg/kg/day for 14 days; assay type: organism-based, Macaca fascicularis; settings: in vivo, 336 h, dose 100-300 mg/kg/day, time 14 day
[5] = Renal toxicity in cynomolgus monkey assessed as retrograde nephropathy at 100 to 300 mg/kg/day for 14 days; assay type: organism-based, Macaca fascicularis; settings: in vivo, 336 h, dose 100-300 mg/kg/day, time 14 day
[6] = Plasma protein binding in rat relative to control; assay type: ADME, cell-free; settings: read-out: PPB (converted)
[7] = Volume of distribution at steady state in cynomolgus monkey at 1 mg/kg, po or 1 mg/kg, iv measured upto 24 hrs by LC-MS/MS analysis; assay type: ADME, organism-based, Macaca fascicularis; settings: in vivo
[8] = Renal toxicity in cynomolgus monkey assessed as increase in blood urea nitrogen at 100 to 300 mg/kg/day for 14 days; assay type: organism-based, Macaca fascicularis; settings: in vivo, 336 h, dose 100-300 mg/kg/day, time 14 day
[9] = Kinetic solubility of compound; assay type: physicochemical; settings: read-out: Kinetic_solubility
[10] = Renal toxicity in cynomolgus monkey at 100 mg/kg/day for 14 days; assay type: organism-based, Macaca fascicularis; settings: in vivo, 336 h, time 14 day
[11] = Apparent permeability across apical to basolateral side in dog MDCK cells; assay type: ADME, cell-based, Canis lupus familiaris
[12] = Solubility of compound at pH 1.50 to 7.50 by RP-HPLC analysis; assay type: physicochemical; settings: buffer, pH 1.5
[13] = Oral bioavailability in cynomolgus monkey at 1 mg/kg measured upto 24 hrs by LC-MS/MS analysis; assay type: ADME, organism-based, Macaca fascicularis; settings: in vivo
[14] = Plasma protein binding in dog relative to control; assay type: ADME, cell-free, Canis lupus familiaris; settings: read-out: PPB (converted)
[15] = Cytotoxicity against human hepatocyte; assay type: toxicity, cell-based; settings: hepatocytes
[16] = Volume of distribution at steady state in Beagle dog at 1 mg/kg, po or 1 mg/kg, iv measured upto 24 hrs by LC-MS/MS analysis; assay type: ADME, organism-based, Canis lupus familiaris; settings: in vivo
[17] = molecular target: T1, hERG (KCNH2) (Homo sapiens, UniProt Q12809); experiment: Inhibition of hERG at 10 uM relative to control; assay type: toxicity
T1 sequence (Q12809 whole entry): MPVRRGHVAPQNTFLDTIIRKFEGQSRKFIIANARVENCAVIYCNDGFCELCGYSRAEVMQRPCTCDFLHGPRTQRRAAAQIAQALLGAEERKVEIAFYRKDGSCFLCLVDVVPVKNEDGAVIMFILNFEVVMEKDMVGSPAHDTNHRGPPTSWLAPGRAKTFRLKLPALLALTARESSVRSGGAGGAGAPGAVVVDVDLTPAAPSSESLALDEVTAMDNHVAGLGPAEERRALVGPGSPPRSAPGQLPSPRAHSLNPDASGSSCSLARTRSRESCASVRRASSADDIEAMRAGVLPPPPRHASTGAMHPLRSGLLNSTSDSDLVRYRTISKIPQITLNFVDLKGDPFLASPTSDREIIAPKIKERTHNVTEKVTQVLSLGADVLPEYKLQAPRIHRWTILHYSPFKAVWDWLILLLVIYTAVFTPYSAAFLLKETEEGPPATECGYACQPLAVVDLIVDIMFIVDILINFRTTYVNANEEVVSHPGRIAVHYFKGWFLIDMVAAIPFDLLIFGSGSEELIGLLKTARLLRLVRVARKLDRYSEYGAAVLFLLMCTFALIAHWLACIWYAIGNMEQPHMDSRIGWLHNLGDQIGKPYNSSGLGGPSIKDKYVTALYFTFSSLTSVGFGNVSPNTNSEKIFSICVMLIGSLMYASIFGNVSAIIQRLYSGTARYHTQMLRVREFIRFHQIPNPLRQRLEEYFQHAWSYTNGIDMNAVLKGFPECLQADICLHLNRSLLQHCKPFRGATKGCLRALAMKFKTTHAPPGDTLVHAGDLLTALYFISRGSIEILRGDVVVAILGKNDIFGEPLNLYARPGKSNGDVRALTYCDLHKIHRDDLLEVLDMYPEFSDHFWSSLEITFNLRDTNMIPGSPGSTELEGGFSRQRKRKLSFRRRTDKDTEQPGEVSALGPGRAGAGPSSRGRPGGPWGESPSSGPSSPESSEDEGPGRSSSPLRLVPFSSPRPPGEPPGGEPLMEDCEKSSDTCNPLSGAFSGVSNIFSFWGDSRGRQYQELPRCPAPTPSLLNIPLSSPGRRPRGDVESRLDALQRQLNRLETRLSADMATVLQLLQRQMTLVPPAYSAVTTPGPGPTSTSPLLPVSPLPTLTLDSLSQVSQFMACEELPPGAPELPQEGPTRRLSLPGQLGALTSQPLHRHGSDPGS

[18] = Half life in Sprague-Dawley rat at 1 mg/kg, iv measured upto 24 hrs by LC-MS/MS analysis; assay type: ADME, organism-based; settings: in vivo
[19] = Oral bioavailability in CD-1 mouse at 1 mg/kg measured upto 24 hrs by LC-MS/MS analysis; assay type: ADME, organism-based; settings: in vivo
[20] = Oral bioavailability in Sprague-Dawley rat at 1 mg/kg measured upto 24 hrs by LC-MS/MS analysis; assay type: ADME, organism-based; settings: in vivo
[21] = Plasma protein binding in cynomolgus monkey relative to control; assay type: ADME, cell-free, Macaca fascicularis; settings: read-out: PPB (converted)
[22] = Plasma protein binding in human relative to control; assay type: ADME, cell-free; settings: read-out: PPB (converted)
[23] = Volume of distribution at steady state in Sprague-Dawley rat at 1 mg/kg, po or 1 mg/kg, iv measured upto 24 hrs by LC-MS/MS analysis; assay type: ADME, organism-based; settings: in vivo
[24] = molecular target: T1, hERG (KCNH2); experiment: Inhibition of hERG at 1 uM relative to control; assay type: toxicity
[25] = Half life in cynomolgus monkey at 1 mg/kg, iv measured upto 24 hrs by LC-MS/MS analysis; assay type: ADME, organism-based, Macaca fascicularis; settings: in vivo
[26] = Half life in Beagle dog at 1 mg/kg, iv measured upto 24 hrs by LC-MS/MS analysis; assay type: ADME, organism-based, Canis lupus familiaris; settings: in vivo
[27] = Plasma protein binding in mouse relative to control; assay type: ADME, cell-free; settings: read-out: PPB (converted)
[28] = test system: Rattus norvegicus; experiment: Anti-allodynic activity in MSU-induced Wistar rat gouty arthritis model assessed as mechanical allodynia at 50 mg/kg, iv administered once daily for 7 days and measured on day 2; assay type: functional, organism-based; settings: time 7.0 day
[29] = Hepatic toxicity in cynomolgus monkey upto 500 mg/kg/day measured for 14 days; assay type: organism-based, Macaca fascicularis; settings: in vivo, 336 h, time 14 day
[30] = Renal toxicity in cynomolgus monkey upto 500 mg/kg/day measured for 14 days; assay type: organism-based, Macaca fascicularis; settings: in vivo, 336 h, time 14 day
[31] = Renal toxicity in cynomolgus monkey assessed as minimal thymic lymphoid depletion at >= 300 mg/kg/day measured for 14 days; assay type: organism-based, Macaca fascicularis; settings: in vivo, 336 h, time 14 day

| Vdss [1] [L/kg] | bioavailability [2] [%] | half-life [3] [h] | fraction unbound [6] | Vdss [7] [L/kg] | solubility kinetic at 24 h [9] [µM] | Papp A→B [11] [×10⁻⁶ cm/s] | solubility [12] | bioavailability [13] [%] | fraction unbound [14] | Vdss [16] [L/kg] | half-life [18] [h] | bioavailability [19] [%] | bioavailability [20] [%] | fraction unbound [21] | fraction unbound [22] | Vdss [23] [L/kg] | half-life [25] [h] | SMILES | inhibition at 10 µM [17] [%] | inhibition at 1 µM [24] [%] | further results |
| --- | --- | --- | --- | --- | --- | --- | --- | --- | --- | --- | --- | --- | --- | --- | --- | --- | --- | --- | --- | --- | --- |
| 0.2 | 28 | 1.9 | 0.014 | 0.08 | 102 (≈ 41.1 µg/mL) | 1.8 | Soluble | 17 | 0.045 | 0.2 | 1.1 | 18 | 30 | 0.04 | 0.014 | 0.2 | 1.4 | O=C(Nc1c2c(cc3c1CCC3)CCC2)NS(=O)(=O)c1cnn2c1OCCC2 [JT-001] | 9.7 | 4.1 | Activity [4]: Toxic; Activity [5]: Toxic; Activity [8]: Toxic; Activity [10]: Toxic; IC50 [15]: > 100 µM; half-life [26]: 2.9 h; fraction unbound [27]: 0.009 |
| – | – | – | – | – | – | – | – | – | – | – | – | – | – | – | – | – | – | C=CC1=C(C(=O)O)N2C(=O)[C@@H](NC(=O)/C(=N\OCOC(=O)C(C)(C)C)c3csc(N)n3)C2SC1 (stereo partly drawn) | – | – | Activity [28]: Active |
| 0.72 | 78 | 1.2 | 0.07 | 0.18 | 105 (≈ 45.3 µg/mL) | 0.077 | Soluble | 53 | 0.114 | 0.67 | 4.4 | 80 | 33 | 0.082 | 0.044 | 0.29 | 0.89 | CN[C@@H]1COc2c(S(=O)(=O)NC(=O)Nc3c4c(cc5c3CCC5)CCC4)cnn2C1 | 0.2 | -3.1 | Activity [29]: Non-Toxic; half-life [26]: 0.99 h; Activity [30]: Non-Toxic; fraction unbound [27]: 0.024; Activity [31]: Non-Toxic |
